According to ChEMBL document CHEMBL3885881, “DrugMatrix”:

Species on record: Rattus norvegicus
Assay: DrugMatrix - Regimen: Daily Repeat
Type: toxicity, organism-based, Sprague-Dawley
Parameters: regimen Daily Repeat, gender Male, age 6-8 weeks
Conditions: in vivo, po, route oral GAVAGE; for ABSOLUTE EOSINOPHIL / ABSOLUTE LYMPHOCYTE / ABSOLUTE MONOCYTE / ABSOLUTE SEGMENTED NEUTROPHIL / EOSINOPHIL / ERYTHROCYTE COUNT / HEMATOCRIT / HEMOGLOBIN / LEUKOCYTE COUNT / LYMPHOCYTE / MEAN CORPUSCULAR HEMOGLOBIN / MEAN CORPUSCULAR HEMOGLOBIN CONCENTRATION / MEAN CORPUSCULAR VOLUME / MONOCYTE / NEUTROPHIL / NUCLEATED RED BLOOD CELLS / PLATELET COUNT / ABSOLUTE BASOPHIL / BASOPHIL: tissue Blood; for ALANINE AMINOTRANSFERASE / ALBUMIN / ALKALINE PHOSPHATASE / ASPARTATE AMINOTRANSFERASE / BLOOD UREA NITROGEN / CARBON DIOXIDE / CHLORIDE / CHOLESTEROL / CREATINE PHOSPHOKINASE / CREATININE / GLUCOSE / LACTATE DEHYDROGENASE / LIPASE / PHOSPHORUS / POTASSIUM / SODIUM / TOTAL PROTEIN / URIC ACID / TOTAL BILIRUBIN: tissue Plasma
[1] = 0 mg/kg, 72 h, dose level Control, time 3 day, vehicle 100 % SALINE
[2] = 0 mg/kg, 72 h, dose level Control, time 3 day, vehicle 100 % WATER
[3] = 0 mg/kg, 120 h, dose level Control, time 5 day, vehicle 100 % SALINE
[4] = 0 mg/kg, 120 h, dose level Control, time 5 day, vehicle 100 % WATER
[5] = 300 mg/kg, 72 h, dose level M2, time 3 day, vehicle 100 % SALINE
[6] = 300 mg/kg, 120 h, dose level M2, time 5 day, vehicle 100 % SALINE

## CCCc1nn(C)c2c(=O)[nH]c(-c3cc(S(=O)(=O)N4CCN(C)CC4)ccc3OCC)nc12
[1]
  ABSOLUTE EOSINOPHIL: 37 CELLS/uL
  ABSOLUTE LYMPHOCYTE: 12359.33 CELLS/uL
  ABSOLUTE MONOCYTE: 122.67 CELLS/uL
  ABSOLUTE SEGMENTED NEUTROPHIL: 847.67 CELLS/uL
  EOSINOPHIL: 0.33%
  ERYTHROCYTE COUNT: 5.75 x10E6/uL
  HEMATOCRIT: 36.08%
  HEMOGLOBIN: 14.07 G/DL
  LEUKOCYTE COUNT: 13.37 x10E3/uL
  LYMPHOCYTE: 92.5%
  MEAN CORPUSCULAR HEMOGLOBIN: 24.47 pg
  MEAN CORPUSCULAR HEMOGLOBIN CONCENTRATION: 38.98 G/DL
  MEAN CORPUSCULAR VOLUME: 62.78 fL
  MONOCYTE: 1%
  NEUTROPHIL: 6.17%
  NUCLEATED RED BLOOD CELLS: 0.17 /100WBC
  PLATELET COUNT: 1202.17 x10E3/uL
  ALANINE AMINOTRANSFERASE: 50.67 u/L
  ALBUMIN: 4.13 G/DL
  ALKALINE PHOSPHATASE: 356.33 u/L
  ASPARTATE AMINOTRANSFERASE: 78.17 u/L
  BLOOD UREA NITROGEN: 14.17 mg/dL
  CARBON DIOXIDE: 31.33 mmol/L
  CHLORIDE: 98.5 MEQ/L
  CHOLESTEROL: 76.5 mg/dL
  CREATINE PHOSPHOKINASE: 248.33 u/L
  CREATININE: 0.2 mg/dL
  GLUCOSE: 144 mg/dL
  LACTATE DEHYDROGENASE: 107 u/L
  LIPASE: 9.83 u/L
  PHOSPHORUS: 12.8 mg/dL
  POTASSIUM: 6.75 MEQ/L
  SODIUM: 142 MEQ/L
  TOTAL PROTEIN: 5.98 G/DL
  URIC ACID: 1.42 mg/dL
[2]
  ABSOLUTE BASOPHIL: 0 CELLS/uL
  ABSOLUTE EOSINOPHIL: 0 CELLS/uL
  ABSOLUTE LYMPHOCYTE: 7802.17 CELLS/uL
  ABSOLUTE MONOCYTE: 13.5 CELLS/uL
  ABSOLUTE SEGMENTED NEUTROPHIL: 617.67 CELLS/uL
  BASOPHIL: 0%
  EOSINOPHIL: 0%
  ERYTHROCYTE COUNT: 5.35 x10E6/uL
  HEMATOCRIT: 33.02%
  HEMOGLOBIN: 12.88 G/DL
  LEUKOCYTE COUNT: 8.43 x10E3/uL
  LYMPHOCYTE: 92.67%
  MEAN CORPUSCULAR HEMOGLOBIN: 24.12 pg
  MEAN CORPUSCULAR HEMOGLOBIN CONCENTRATION: 39.03 G/DL
  MEAN CORPUSCULAR VOLUME: 61.8 fL
  MONOCYTE: 0.17%
  NEUTROPHIL: 7.17%
  NUCLEATED RED BLOOD CELLS: 0 /100WBC
  PLATELET COUNT: 1124.83 x10E3/uL
  ALANINE AMINOTRANSFERASE: 54.17 u/L
  ALBUMIN: 4.07 G/DL
  ALKALINE PHOSPHATASE: 383.83 u/L
  ASPARTATE AMINOTRANSFERASE: 82.17 u/L
  BLOOD UREA NITROGEN: 13.67 mg/dL
  CARBON DIOXIDE: 31 mmol/L
  CHLORIDE: 100.83 MEQ/L
  CHOLESTEROL: 65.17 mg/dL
  CREATINE PHOSPHOKINASE: 228.33 u/L
  CREATININE: 0.12 mg/dL
  GLUCOSE: 148 mg/dL
  LACTATE DEHYDROGENASE: 97.83 u/L
  LIPASE: 9.17 u/L
  PHOSPHORUS: 9.75 mg/dL
  POTASSIUM: 5.85 MEQ/L
  SODIUM: 147.02 MEQ/L
  TOTAL BILIRUBIN: 0.18 mg/dL
  TOTAL PROTEIN: 6.1 G/DL
  URIC ACID: 0.5 mg/dL
[3]
  ABSOLUTE LYMPHOCYTE: 8681.17 CELLS/uL
  ABSOLUTE MONOCYTE: 79.83 CELLS/uL
  ABSOLUTE SEGMENTED NEUTROPHIL: 689 CELLS/uL
  HEMATOCRIT: 33.55%
  HEMOGLOBIN: 13.1 G/DL
  LEUKOCYTE COUNT: 9.45 x10E3/uL
  LYMPHOCYTE: 92.33%
  MEAN CORPUSCULAR HEMOGLOBIN: 23.92 pg
  MEAN CORPUSCULAR HEMOGLOBIN CONCENTRATION: 39.07 G/DL
  MEAN CORPUSCULAR VOLUME: 61.22 fL
  MONOCYTE: 0.67%
  NEUTROPHIL: 7%
  PLATELET COUNT: 1001.17 x10E3/uL
  ALANINE AMINOTRANSFERASE: 49.33 u/L
  ALKALINE PHOSPHATASE: 300.33 u/L
  ASPARTATE AMINOTRANSFERASE: 83.5 u/L
  BLOOD UREA NITROGEN: 16 mg/dL
  CARBON DIOXIDE: 29.67 mmol/L
  CHLORIDE: 100.5 MEQ/L
  CHOLESTEROL: 74.33 mg/dL
  CREATINE PHOSPHOKINASE: 489.67 u/L
  CREATININE: 0.35 mg/dL
  GLUCOSE: 151 mg/dL
  LACTATE DEHYDROGENASE: 133.67 u/L
  LIPASE: 11.17 u/L
  PHOSPHORUS: 10.88 mg/dL
  POTASSIUM: 5.5 MEQ/L
  SODIUM: 145.7 MEQ/L
  TOTAL BILIRUBIN: 0.2 mg/dL
  URIC ACID: 0.68 mg/dL
[4]
  ABSOLUTE BASOPHIL: 0 CELLS/uL
  ABSOLUTE EOSINOPHIL: 0 CELLS/uL
  ABSOLUTE LYMPHOCYTE: 10538 CELLS/uL
  ABSOLUTE MONOCYTE: 15.83 CELLS/uL
  ABSOLUTE SEGMENTED NEUTROPHIL: 762.83 CELLS/uL
  BASOPHIL: 0%
  EOSINOPHIL: 0%
  ERYTHROCYTE COUNT: 5.49 x10E6/uL
  HEMATOCRIT: 34.63%
  HEMOGLOBIN: 13.72 G/DL
  LEUKOCYTE COUNT: 11.32 x10E3/uL
  LYMPHOCYTE: 92.67%
  MEAN CORPUSCULAR HEMOGLOBIN: 24.97 pg
  MEAN CORPUSCULAR HEMOGLOBIN CONCENTRATION: 39.57 G/DL
  MEAN CORPUSCULAR VOLUME: 63.05 fL
  MONOCYTE: 0.17%
  NEUTROPHIL: 7.17%
  NUCLEATED RED BLOOD CELLS: 0.17 /100WBC
  PLATELET COUNT: 802 x10E3/uL
  ALANINE AMINOTRANSFERASE: 50.5 u/L
  ALBUMIN: 4.07 G/DL
  ALKALINE PHOSPHATASE: 336.83 u/L
  ASPARTATE AMINOTRANSFERASE: 81 u/L
  BLOOD UREA NITROGEN: 14.17 mg/dL
  CARBON DIOXIDE: 32 mmol/L
  CHLORIDE: 98.33 MEQ/L
  CHOLESTEROL: 69.17 mg/dL
  CREATINE PHOSPHOKINASE: 253.33 u/L
  CREATININE: 0.13 mg/dL
  GLUCOSE: 153.67 mg/dL
  LACTATE DEHYDROGENASE: 157 u/L
  LIPASE: 9 u/L
  PHOSPHORUS: 10.78 mg/dL
  POTASSIUM: 6.11 MEQ/L
  SODIUM: 144.57 MEQ/L
  TOTAL BILIRUBIN: 0.15 mg/dL
  TOTAL PROTEIN: 6.05 G/DL
  URIC ACID: 0.73 mg/dL
[5]
  ABSOLUTE BASOPHIL: 0 CELLS/uL
  ABSOLUTE EOSINOPHIL: 110.67 CELLS/uL
  ABSOLUTE LYMPHOCYTE: 12663.33 CELLS/uL
  ABSOLUTE MONOCYTE: 138 CELLS/uL
  ABSOLUTE SEGMENTED NEUTROPHIL: 821.33 CELLS/uL
  BASOPHIL: 0%
  EOSINOPHIL: 0.67%
  ERYTHROCYTE COUNT: 5.21 x10E6/uL
  HEMATOCRIT: 34.03%
  HEMOGLOBIN: 13.07 G/DL
  LEUKOCYTE COUNT: 13.73 x10E3/uL
  LYMPHOCYTE: 92.67%
  MEAN CORPUSCULAR HEMOGLOBIN: 25.03 pg
  MEAN CORPUSCULAR HEMOGLOBIN CONCENTRATION: 38.43 G/DL
  MEAN CORPUSCULAR VOLUME: 65.3 fL
  MONOCYTE: 0.67%
  NEUTROPHIL: 6%
  NUCLEATED RED BLOOD CELLS: 0.33 /100WBC
  PLATELET COUNT: 1148.67 x10E3/uL
  ALANINE AMINOTRANSFERASE: 45.67 u/L
  ALBUMIN: 3.8 G/DL
  ALKALINE PHOSPHATASE: 335 u/L
  ASPARTATE AMINOTRANSFERASE: 71.67 u/L
  BLOOD UREA NITROGEN: 13.33 mg/dL
  CARBON DIOXIDE: 27.67 mmol/L
  CHLORIDE: 100 MEQ/L
  CHOLESTEROL: 70.67 mg/dL
  CREATINE PHOSPHOKINASE: 284 u/L
  CREATININE: 0.2 mg/dL
  GLUCOSE: 154 mg/dL
  LACTATE DEHYDROGENASE: 142.33 u/L
  LIPASE: 12.33 u/L
  PHOSPHORUS: 11.37 mg/dL
  POTASSIUM: 5.84 MEQ/L
  SODIUM: 144.75 MEQ/L
  TOTAL BILIRUBIN: 0.13 mg/dL
  TOTAL PROTEIN: 5.13 G/DL
  URIC ACID: 0.97 mg/dL
[6]
  ABSOLUTE BASOPHIL: 0 CELLS/uL
  ABSOLUTE EOSINOPHIL: 0 CELLS/uL
  ABSOLUTE LYMPHOCYTE: 10278 CELLS/uL
  ABSOLUTE MONOCYTE: 0 CELLS/uL
  ABSOLUTE SEGMENTED NEUTROPHIL: 955.33 CELLS/uL
